Literature values in patent publication US20030082102A1, “Radioactive platinum complexes for cancer treatment” (priority 2001, published 2003).
Like-named read-outs stand apart in the source and are kept apart here.

Assays:
[1] = tested on: tissue culture; conditions: non-radioactive drug with external radiation
[2] = tested on: mammalian cells; conditions: for radiopotentiation / potentiation of chemotherapy effectiveness: cell culture, Howell 1994
[3] = tracer quantities

SMILES	Radiation enhancer in vitro? [1]	radiopotentiation / potentiation of chemotherapy effectiveness [2]	also measured
N.N.O=C([O-])C1(C(=O)[O-])CCC1.[Pt+2] [Carboplatin, 1,1-Cyclobutanedicarboxylate diamine platinum (II)]	Yes		
CC(C)N.CC(C)N.[Cl-].[Cl-].[OH-].[OH-].[Pt] [Iproplatin, Cis-dichloro,trans-dihydroxybis-isopropylamine platinum (IV)]	Yes		
CC(=O)[O][Pt]([NH2])([Cl])([Cl])([NH]C1CCCCC1)[O]C(C)=O [JM216]	Yes		
[NH2][Pt]([NH2])([Cl])[Cl] [^195mPt-cisplatinum]		no potentiation of chemotherapy effectiveness	radiotoxicity above and beyond chemical toxicity ([2]; cell culture studies, Howell et al 1994): no radiotoxicity above and beyond its chemical toxicity; tumor drug level (tumor uptake) ([3]; intra-arterial infusion, patients with nonresectable hepatoma): 34-55 % of given dose; tumor drug level (tumor uptake) ([3]; intravenous route): < 5 % of given dose
N.N.[Cl][Pt+2][Cl] [^195mPt-trans-cisplatinum]		showed radiopotentiation	
